{"source": "patent US20170056373A1", "about": "“GHRELIN O-ACYLTRANSFERASE INHIBITORS” (SYRACUSE UNIVERSITY, priority 2015, published 2017)", "key": {"hGOAT [1]": {"molecular_target": "T1, hGOAT (Homo sapiens, UniProt Q96T53)", "T1 construct": "His10 (C); made in house; host or cells: Sf9 insect cells (baculovirus), membranes", "T1 sequence (Q96T53 1-435)": "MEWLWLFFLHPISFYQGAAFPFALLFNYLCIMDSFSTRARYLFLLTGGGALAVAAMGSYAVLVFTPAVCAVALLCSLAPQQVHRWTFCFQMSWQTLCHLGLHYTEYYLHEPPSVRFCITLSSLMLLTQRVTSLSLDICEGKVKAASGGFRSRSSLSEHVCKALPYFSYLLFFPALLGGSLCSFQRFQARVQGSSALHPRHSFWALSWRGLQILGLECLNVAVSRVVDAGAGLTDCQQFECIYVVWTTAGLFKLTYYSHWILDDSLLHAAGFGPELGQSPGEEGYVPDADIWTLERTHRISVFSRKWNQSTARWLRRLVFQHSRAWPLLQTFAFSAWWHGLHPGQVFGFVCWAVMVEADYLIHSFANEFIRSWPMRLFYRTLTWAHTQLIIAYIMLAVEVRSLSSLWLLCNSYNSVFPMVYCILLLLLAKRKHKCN", "assay": "fluorescent ghrelin peptide substrates assayed for activity with hGOAT (HPLC with fluorescence detection)", "assay_type": "biochemical", "details": "peptide as substrate for octanoylation by hGOAT", "experimental": "With the peptide substrates, the addition of the hydrophobic octanoyl group upon serine acylation at position 3 leads to an increase in retention time in reverse-phase (RP) HPLC. The panel of fluorescent ghrelin peptide substrates was assayed for activity with hGOAT using HPLC coupled with fluorescence detection of the fluorescently labeled peptides. All reactions with hGOAT-His10 membranes were performed in parallel with mock membranes to account for nonspecific peptide modifications.\n(§1) An assay for human ghrelin O-acyltransferase activity was performed using hGOAT expressed from insect (Sf9) cells using standard baculoviral methods and a fluorescent 6-mer peptide synthesized by a single step reaction followed by high performance liquid chromatography (HPLC) purification. The assay was performed at room temperature using hGOAT membrane protein, octanoyl-CoA, a fluorescent ghrelin peptide, a buffer, and a detergent. Activity may be measure by detecting the presence of any octanoylation of the ghrelin peptide. For example, the presence of octanoylated ghrelin peptide may be confirmed by HPLC or by using a fluorescent system whose fluorescence will increase as a result of octanoylation of the ghrelin peptide."}, "hGOAT [2]": {"molecular_target": "T1, hGOAT", "assay": "in vitro hGOAT activity assay (inhibition of ghrelin peptide octanoylation, HPLC/fluorescence)", "assay_type": "biochemical", "details": "for IC50: hGOAT membrane fraction from Sf9 cells, in vitro octanoylation assay", "experimental": "as §1\nA library of potential inhibitors was screened using the assay of the present invention. More particularly, membrane fractions from Sf9 cells expressing hGOAT were thawed on ice and homogenized by passing through an 18-gauge needle ten times. Membrane fraction containing ˜50-100 μg membrane protein (determined by Bradford assay) was preincubated for 30 minutes at room temperature with 1 μM MAFP, 500 μM octanoyl CoA, 50 mM HEPES (pH=7.0), and 1 μl Diversity Set compound dissolved in DMSO for a final inhibitor concentration of either 10 or 100 μM for primary screening. Reactions were initiated with the addition of 1.5 μM fluorescent peptide substrate, incubated at room temperature in the dark for 3 hours, then stopped with 50 μl 20% acetic acid in isopropanol. The solutions were clarified by protein precipitation with 16.7 μl 20% trichloroacetic acid, followed by centrifugation (1,000×g, 1 m). The resulting supernatant was analyzed by reverse phase HPLC.\nReactions followed the above procedure, and included inhibitor concentrations of 1, 5, 10, 50, or 100 μM, as well as a DMSO-only vehicle control. Compounds determined to act as hGOAT inhibitors are seen in FIGS. 4 through 6."}, "mouse isoform of GOAT": {"molecular_target": "T2, mouse isoform of GOAT (Mus musculus, UniProt P0C7A3)", "T2 construct": "expressed in transfected cells; host or cells: HEK293FT, stably transfected with the phPPG-mGOAT plasmid (gift from Dr. Jef Boeke's laboratory)", "T2 sequence (P0C7A3 1-435)": "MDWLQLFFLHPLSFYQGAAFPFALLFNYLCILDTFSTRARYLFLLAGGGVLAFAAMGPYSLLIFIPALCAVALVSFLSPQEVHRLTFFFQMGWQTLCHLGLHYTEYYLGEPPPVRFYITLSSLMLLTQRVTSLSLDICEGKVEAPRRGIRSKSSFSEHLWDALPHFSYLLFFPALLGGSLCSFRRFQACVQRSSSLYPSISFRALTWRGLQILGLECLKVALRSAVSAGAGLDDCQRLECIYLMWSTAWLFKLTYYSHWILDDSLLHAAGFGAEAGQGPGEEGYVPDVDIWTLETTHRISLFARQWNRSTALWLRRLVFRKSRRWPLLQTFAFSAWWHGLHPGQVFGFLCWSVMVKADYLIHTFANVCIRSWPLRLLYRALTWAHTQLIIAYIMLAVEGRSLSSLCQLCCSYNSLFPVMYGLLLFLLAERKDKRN", "assay": "cell-based inhibition of ghrelin octanoylation, acyl ghrelin ELISA in GOAT/preproghrelin transfected HEK293FT cells", "details": "stably transfected HEK293FT cells, 24 hours incubation, read-out: cellular IC50, reduction of acyl ghrelin concentrations", "quoted_text": "Stably transfected GOAT/Preproghrelin HEK 293FT cells were generated using the phPPG-mGOAT plasmid (a gift from Dr. Jef Boeke's laboratory) containing human preproghrelin (hPPG) and mouse ghrelin O-acyltransferase (mGOAT) connected by an intervening encephalomyocarditis virus internal ribosome entry site (ECMV-IRES) under puromycin selection as previously described. Cells were transfected using Lipofectamine 2000 (Invitrogen) at a 2 μL to 1 μg DNA ratio in 10 cm tissue culture-treated dishes according to manufacturer's protocol. The 293FT-hPPG-mGOAT cells were cultured in DMEM medium (Corning) supplemented with 10% inactivated fetal bovine serum, 1% penicillin/streptomycin, 1 ug/mL puromycin, and 0.01% octanoic acid and routinely passaged 2-3 times per week. A clonal line was chosen through serial dilution into a 96-well plate.\nCell density and number were optimized for detection of acyl ghrelin via ELISA (EMD Millipore Corp). 293FT-hPPG-mGOAT clonal cells were plated in the late afternoon in 24-plates at 2×10^5 cells/well. Cells were incubated overnight at 37° C., 5% CO2 and treated the next morning with inhibitors or vehicle (DMSO) in triplicate. Cells were treated for 24 hours and harvested after medium aspiration using 40 μL/well trypsin-EDTA (0.25%, Corning) containing 5 μM methoxy arachidonyl flourophosphonate (MAFP). […]"}}, "note": "Ends that are not written are not given here. * marks the point of attachment. acrylodan = CN(C)c1ccc2cc(C(=O)CC*)ccc2c1; Dansyl = CN(C)c1cccc2c(S(=O)(=O)*)cccc12", "data": [{"molecule": "1-Dansyl: fluorescent ghrelin mimic peptide substrate, Dansyl-GSSFLS (SEQ. ID No. 2) (ends and bridges not checked)", "values": [{"measurement": "Active with hGOAT?", "setting": "hGOAT [1]", "value": "not modified by hGOAT and No"}]}, {"molecule": "CCNC(=O)[C@]12CCC(C)(C)C[C@H]1[C@H]1C(=O)C=C3[C@@]4(C)C=C(C#N)C(=O)C(C)(C)[C@@H]4CC[C@@]3(C)[C@]1(C)CC2", "note": "[CDDO-EA]", "values": [{"measurement": "IC50", "setting": "hGOAT [2]", "value": "8 ± 4", "unit": "µM"}, {"measurement": "IC50", "setting": "mouse isoform of GOAT", "value": "0.32 ± 0.15", "unit": "µM"}]}, {"molecule": "CC1(C)CC[C@]2(C(=O)n3ccnc3)CC[C@]3(C)[C@H](C(=O)C=C4[C@@]5(C)C=C(C#N)C(=O)C(C)(C)[C@@H]5CC[C@]43C)[C@@H]2C1", "note": "[CDDO-Im, 1[2-cyano-3,12-dioxooleana-1,9-dien-28-oyl]imidazole]", "values": [{"measurement": "IC50", "setting": "hGOAT [2]", "value": "38 ± 6", "unit": "µM"}]}, {"molecule": "COC(=O)[C@]12CCC(C)(C)C[C@H]1[C@H]1C(=O)C=C3[C@@]4(C)C=C(C#N)C(=O)C(C)(C)[C@@H]4CC[C@@]3(C)[C@]1(C)CC2", "note": "[CDDO-Me, methyl 2-cyano-3,12-dioxooleana-1,9(11)dien-28-oate]", "values": [{"measurement": "inhibitory activity against hGOAT-catalyzed ghrelin octanoylation (in words)", "setting": "hGOAT [2]; in vitro hGOAT activity assay", "value": "exhibits inhibitory activity against hGOAT"}, {"measurement": "IC50", "setting": "mouse isoform of GOAT", "value": "0.035 ± 0.01", "unit": "µM"}]}, {"molecule": "AcDan-2: acrylodan-labeled ghrelin mimic peptide substrate, GCAcDanSFLS (SEQ. ID No. 3) (GC(acrylodan)SFLS; ends and bridges not checked)", "values": [{"measurement": "Active with hGOAT?", "setting": "hGOAT [1]", "value": "not modified by hGOAT and No"}]}, {"molecule": "AcDan-5: acrylodan-labeled ghrelin mimic peptide substrate, GSSFCAcDanS (SEQ. ID No. 4) (GSSFC(acrylodan)S; ends and bridges not checked)", "values": [{"measurement": "Active with hGOAT?", "setting": "hGOAT [1]", "value": "yielded the octanoylated peptide and Yes"}]}, {"molecule": "AcDan-6: acrylodan-labeled ghrelin mimic peptide substrate, GSSFLCAcDan (SEQ. ID No. 5) (GSSFLC(acrylodan)-NH2; ends and bridges not checked)", "values": [{"measurement": "Active with hGOAT?", "setting": "hGOAT [1]", "value": "yielded the octanoylated peptide and Yes"}]}]}
